Measured values as given in ChEMBL document CHEMBL1121578, “Synthesis of certain [6:5:6] linear tricyclic nucleosides as potential antitumor agents” (1980).

Tests used:
[1] = system: Mus musculus; assay: In vivo increase in life span of drug treated (L1210-bearing) mice administered at a dose of 200 mg/kg/injection; assay type: functional
[2] = system: L1210; assay: Concentration required to reduce the growth rate of L-1210 cells to half of the control rate; assay type: functional; conditions: Mus musculus, read-out: ID50 (the source's name)
[3] = system: Mus musculus; assay: In vivo increase in life span of drug treated (L1210-bearing) mice administered at a dose of 400 mg/kg/injection; assay type: functional
[4] = system: L1210; assay: Concentration required to reduce the growth rate of L-1210 cells to half of the control rate; No effect on cell growth of 1E-4 M of the compound; assay type: functional, cell-based; conditions: Mus musculus
[5] = system: Mus musculus; assay: In vivo increase in life span of drug treated (P388-bearing) mice administered at a dose of 50 mg/kg/injection; assay type: functional
[6] = system: Mus musculus; assay: In vivo increase in life span of drug treated (L1210-bearing) mice administered at a dose of 100 mg/kg/injection; assay type: functional
[7] = system: Mus musculus; assay: In vivo increase in life span of drug treated (L1210-bearing) mice administered at a dose of 25 mg/kg/injection; assay type: functional
[8] = system: Mus musculus; assay: In vivo increase in life span of drug treated (L1210-bearing) mice administered at a dose of 320 mg/kg/injection; assay type: functional
[9] = system: Mus musculus; assay: In vivo increase in life span of drug treated (L1210-bearing) mice administered at a dose of 8 mg/kg/injection; assay type: functional
[10] = system: Mus musculus; assay: In vivo increase in life span of drug treated (L1210-bearing) mice administered at a dose of 120 mg/kg/injection; assay type: functional
[11] = system: Mus musculus; assay: In vivo increase in life span of drug treated (P388-bearing) mice administered at a dose of 200 mg/kg/injection; assay type: functional
[12] = system: Mus musculus; assay: In vivo increase in life span of drug treated (L1210-bearing) mice administered at a dose of 600 mg/kg/injection; assay type: functional

Row | SMILES | ILS at 200 mg/kg [1] | IC50 [2] | other results
1 | Nc1nc2c(c(=O)[nH]1)c1c(N)ncnc1n2[C@@H]1O[C@H](CO)[C@@H](O)[C@H]1O | 13% | 2.5 µM | 
2 | CSc1nc(N)c2c3c(N)ncnc3n(C3O[C@H](CO)[C@@H](O)[C@H]3O)c2n1 (stereo partly specified) |  |  | ILS at 400 mg/kg [3]: 1%; ID50 [4]: No effect
3 | Nc1ncnc2c1c1cncnc1n2C1O[C@H](CO)[C@@H](O)[C@H]1O (stereo partly specified) | 2% | > 100 µM | 
4 | Nc1ncnc2c1c1c(O)nc(S)nc1n2C1O[C@H](CO)[C@@H](O)[C@H]1O (stereo partly specified) |  | 7 µM | ILS at 400 mg/kg [3]: 14%
5 | Nc1ncnc2c1c1c(O)ncnc1n2C1O[C@H](CO)[C@@H](O)[C@H]1O (stereo partly specified) |  | 63 µM | ILS at 50 mg/kg [5]: 33%; ILS at 100 mg/kg [6]: 20%
6 | NC(=S)c1c(N)n(C2O[C@H](CO)[C@@H](O)[C@H]2O)c2ncnc(N)c12 (stereo partly specified) |  | 0.22 µM | ILS at 25 mg/kg [7]: 37%
7 | Nc1ncnc2c1c1cnc(O)nc1n2C1O[C@H](CO)[C@@H](O)[C@H]1O (stereo partly specified) |  | 75 µM | ILS at 320 mg/kg [8]: 10%
8 | Nc1ncnc2c1c1c(S)nc(S)nc1n2C1O[C@H](CO)[C@@H](O)[C@H]1O (stereo partly specified) |  | 6.1 µM | ILS at 400 mg/kg [3]: 10%
9 | Nc1ncnc2c1c1c(N)ncnc1n2[C@@H]1O[C@H](CO)[C@@H](O)[C@H]1O |  |  | ID50 [4]: No effect; ILS at 100 mg/kg [6]: -9%
10 | Nc1ncnc2c1c1c(N)nc(O)nc1n2C1O[C@H](CO)[C@@H](O)[C@H]1O (stereo partly specified) | 21% | 120 µM | 
11 | CSc1nc(O)nc2c1c1c(N)ncnc1n2C1O[C@H](CO)[C@@H](O)[C@H]1O (stereo partly specified) | 4% |  | ID50 [4]: No effect
12 | N#Cc1c(N)n(C2O[C@H](CO)[C@@H](O)[C@H]2O)c2ncnc(N)c12 (stereo partly specified) |  | 0.18 µM | ILS at 8 mg/kg [9]: 26%
13 | Nc1ncnc2c1c1c(O)nc(O)nc1n2C1O[C@H](CO)[C@@H](O)[C@H]1O (stereo partly specified) |  | ~100 µM | ILS at 400 mg/kg [3]: 108%
14 | CSc1nc(SC)c2c3c(N)ncnc3n(C3O[C@H](CO)[C@@H](O)[C@H]3O)c2n1 (stereo partly specified) | 45% | 78 µM | 
15 | Nc1ncnc2c1c1c(S)ncnc1n2C1O[C@H](CO)[C@@H](O)[C@H]1O (stereo partly specified) |  | 2 µM | ILS at 100 mg/kg [6]: 38%
16 | NC(=O)c1c(N)n(C2O[C@H](CO)[C@@H](O)[C@H]2O)c2ncnc(N)c12 (stereo partly specified) |  | 16 µM | ILS at 120 mg/kg [10]: 30%
17 | CSc1ncnc2c1c1c(N)ncnc1n2C1O[C@H](CO)[C@@H](O)[C@H]1O (stereo partly specified) | 9% | 8.6 µM | ILS at 200 mg/kg [11]: 5%
18 | Nc1ncnc2c1c1c(SCc3ccc([N+](=O)[O-])cc3)ncnc1n2C1O[C@H](CO)[C@@H](O)[C@H]1O (stereo partly specified) | -2% | 45 µM | 
19 | CSc1nc(O)c2c3c(N)ncnc3n(C3O[C@H](CO)[C@@H](O)[C@H]3O)c2n1 (stereo partly specified) | 0% | 80 µM | 
20 | N#Cc1c(Br)n(C2O[C@H](CO)[C@@H](O)[C@H]2O)c2ncnc(N)c12 (stereo partly specified) |  | 0.21 µM | ILS at 600 mg/kg [12]: 22%
21 | C=CCSc1ncnc2c1c1c(N)ncnc1n2C1O[C@H](CO)[C@@H](O)[C@H]1O (stereo partly specified) | 9% | 110 µM | 
22 | Nc1ncnc2c1c1c(=S)[nH]c(=O)[nH]c1n2C1O[C@H](CO)[C@@H](O)[C@H]1O (stereo partly specified) |  | 11 µM | ILS at 100 mg/kg [6]: 4%
